{
  "source": "paper PMC6336887",
  "about": "“Smallest near-infrared fluorescent protein evolved from cyanobacteriochrome as versatile tag for spectral multiplexing” (Nature Communications, 2019)",
  "key": {"[1]": {"biological_target": "T1, NpR3784 GAF domain (Nostoc punctiforme, UniProt B2J457)", "T1 construct": "gene Npun_R3784", "assay": "near-infrared fluorescence of E. coli co-expressing heme oxygenase", "type": "cell-based", "conditions": "weak binding; BV produced in the cells"}, "[2]": {"biological_target": "T2, miRFP670nano (Nostoc punctiforme, UniProt B2J457, V48M/F66C/M67V/Y68F/P72E/S82A/A89S/N92K/Q96R/T98R/I113Y/G123N/H128Y/N140I/N158H/C160L/L177Q/Q180V, form not given)", "T2 construct": "gene Npun_R3784; single GAF domain, N-terminal alpha1-helix removed, 147 residues, 17 kDa, N-terminal polyhistidine tag, E. coli LMG194 co-expressing heme oxygenase, monomer", "assay": "X-ray crystal structure, […] A", "type": "binding", "conditions": "covalent thioether, Cys86 to C3^1 of ring A; crystals at pH 4.0; BV from co-expressed heme oxygenase"}},
  "data": [
    {"smiles": "C=CC1=C(C)C(=Cc2[nH]c(C=C3N=C(C=C4NC(=O)C(C)=C4C=C)C(C)=C3CCC(=O)O)c(CCC(=O)O)c2C)NC1=O", "note": "[biliverdin]", "values": [
      {"measurement": "near-infrared fluorescence of E. coli co-expressing heme oxygenase", "setting": "[1]", "result": "the GAF domain of NpR3784 CBCR"},
      {"measurement": "X-ray crystal structure, 1.95 A", "setting": "[2]", "result": "BV is covalently attached by a thioether bond between the conserved for CBCRs Cys86 residue"}
    ]}
  ]
}
